Laboratory results from PubChem BioAssay (NCI).
Several values for one entry are separate records, joined by “and”; a condition that tells them apart may be missing. Equal values may be shown once.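 Growth conditions: 96-well plates. Treatment: test compound, 48 hours, 5 concentrations. Analysis: linear interpolation between bracketing concentrations; unreached endpoints set to highest concentration. The concentration for 50% growth inhibition is given as GI50. TGI marks complete inhibition of growth.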

Experiments:
Assay in all cases: NCI tumour cell line growth inhibition, 48 h
[1] = test system: KM20L2 colon
[2] = test system: HOP-18 NSCLC
[3] = test system: SNB-78 CNS
[4] = test system: XF 498 CNS
[5] = test system: M19-MEL melanoma
[6] = test system: RXF-631 renal
[7] = test system: MDA-N
[8] = test system: P388/ADR leukemia
[9] = test system: P388 leukemia
[10] = test system: SN12K1 renal

SMILES	TGI [1] [µM]	TGI [2] [µM]	TGI [3] [µM]	TGI [4] [µM]	TGI [5] [µM]	TGI [6] [µM]	TGI [7]	further results
COc1cc([C@H]2c3cc4c(cc3[C@H](NCc3ccc(F)cc3)C3COC(=O)[C@H]32)OCO4)cc(OC)c1O (stereo partly specified)	15.8	> 100	78	9.67	23.4	14.3	–	–
O=C(Nc1c(Cl)cc([N+](=O)[O-])cc1Cl)C(=O)C(C(=O)c1ccncc1)C1OC(=O)c2ccccc21 (stereo unspecified)	> 100	> 100	> 100	> 100	> 100	> 100	–	–
COc1cc2c(c(OC)c1OC)-c1ccc(SC)c(=O)cc1C(CC(=O)Oc1ccccc1F)C2 (stereo unspecified)	0.0252	–	> 7.5	–	> 7.5	–	–	–
COc1ccc(C2NC(c3ccc(OC)cc3)C(C)C(=O)C2C)cc1 (stereo unspecified)	> 100	> 100	> 100	–	> 100	> 100	–	–
CC(=O)O[C@H]1C(=O)[C@@]2(C)C([C@H](OC(=O)c3ccccc3)[C@]3(O)C[C@H](OC(=O)[C@H](O)[C@@H](NC(=O)c4ccc(Cl)cc4)c4ccccc4)C(C)=C1C3(C)C)C1(OC(C)=O)CO[C@@H]1C[C@@H]2O (stereo partly specified)	> 100	–	–	3.73	14.1	–	0.0195 µM	–
Cc1cc(N(CCC#N)CCC#N)ccc1/C=C1N=C(/C=C\c2ccccc2)N(c2ccc(C(=O)O)cc2)C\1=O	> 100	> 100	> 100	–	> 100	> 100	–	–
O=C(/C=N/O)Nc1cccc(Cl)c1I	> 100	–	–	> 100	> 100	–	–	–
Cc1ccc(-n2cc(/C(N)=N/O)c3ccccc3c2=O)cc1	> 100	–	–	> 100	> 100	–	–	–
c1ccc2c(c1)n1nnnc1c1nnnn21	> 100	–	> 100	> 100	> 100	> 100	–	–
Fc1cccc(C2ON=C(c3ccccc3)N2C23CC4CC(CC(C4)C2)C3)c1 (stereo unspecified)	–	–	–	–	–	–	> 10 µM	–
COc1cc(COC(=O)N(C)[C@@H](Cc2ccccc2)C(=O)O)c([N+](=O)[O-])cc1OC	–	–	–	–	–	–	> 100 µM	–
O=S1(=O)CS(=O)(=O)OCCCCCO1	> 100	> 100	> 100	–	> 100	> 100	–	–
CCOC(=O)c1cnc2c(ccc3ncccc32)c1OCC	> 100	> 100	> 100	–	> 100	> 100	–	–
O=C(CC/C(CC(=O)c1ccc(Cl)cc1)=N\O)Nc1cccc(Cl)c1	> 100	–	> 100	> 100	> 100	–	–	–
COc1ccc(/C(C#N)=C2/O/C(=N/N)C(c3ccc(OC)c(OC)c3)C2=O)cc1OC (stereo unspecified)	> 100	–	> 100	> 100	> 100	–	–	–
Cc1ccccc1NC(=O)C(=O)CC(=O)c1sc(-n2nc(-c3ccccc3)cc2-c2ccccc2)nc1C	> 100	–	> 100	–	> 100	> 100	–	–
COc1cc(OC)c(OC)cc1/C=C\c1ccnc2ccccc12	6.86	–	> 100	–	> 100	–	0.791 µM	–
NCC[PH+](c1ccccc1)c1ccccc1.NCC[PH+](c1ccccc1)c1ccccc1.[Cl-].[Pt+4]	–	–	–	–	–	–	> 100 µM	GI50 [7]: > 100 µM
CSc1ccc2c(c1)N(CCCN(C)C)c1ccccc1S2	–	–	–	–	–	–	23.9 µM	–
CCCC/C=C1/CCC(CN(C)C)C1=O (stereo unspecified)	5.59	5.56	5.21	–	3.05	3.27	5.2 µM	TGI [8]: 0.396 µM; TGI [9]: 0.366 µM; TGI [10]: 1.9 µM
CCOC(=O)C(=O)Nc1nc2ccc(OC)cc2s1	> 100	> 100	> 100	–	> 100	–	–	–
COc1ccc(N=C2C(=O)Nc3ccc(Br)cc32)cc1	–	–	–	–	–	–	30.3 µM	–
C=C1CCC2C(C)(CO)C(O)CCC2(C)C1C/C=C1\C(=O)OCC1O (stereo unspecified)	–	–	–	–	–	–	55.1 µM	–
O=C([CH-]C(=O)c1ccccc1)c1ccccc1.[CH2-]C.[CH2-]C.[Tl+3]	> 100	> 100	–	–	–	–	–	GI50 [1]: 27.4 µM; GI50 [2]: 28.5 µM
CNC(=O)N(CCCCC(NC(C)=O)C(=O)NCc1ccccc1)Cc1ccccc1 (stereo unspecified)	> 100	–	> 100	> 100	> 100	> 100	–	–
c1ccc2[nH]c(-c3cscn3)nc2c1	–	–	–	–	–	–	> 100 µM	–

SMILES	TGI [1] [µM]	TGI [2] [µM]	TGI [3] [µM]	TGI [4] [µM]	TGI [5] [µM]	TGI [6] [µM]	TGI [7]	further results
NC(=O)N1N=C2c3ccccc3OC[C@H]2[C@@H]1c1ccccc1	49.8	> 100	> 95.3	> 100	> 100	–	–	–
COc1cc2ccc(CC(=O)O)cc2cc1OC	> 100	> 100	> 100	–	> 100	> 100	–	–
O=C(O)c1cc2ccc(Cl)cc2c(O)c1C1=CCCCC1	> 100	> 100	> 100	51	> 100	> 100	–	–
COc1ccc2cc1Oc1ccc(cc1)CC1c3c(cc(OC)c4c3Oc3cc5c(cc3O4)CCNC5C2)CCN1C (stereo unspecified)	–	–	–	–	–	–	3.43 µM and 3.49 µM	GI50 [7]: 1.95 µM
Cc1cc(=O)[nH]c2c1C(=O)c1c(C)cc(=O)n(C)c1C2=O	–	–	–	–	–	–	0.0331 µM	–
COc1ccc(C2C(C(=O)O)=C(COC(C)=O)Oc3cc4c(cc32)OCO4)c(OC)c1 (stereo unspecified)	> 100	> 100	> 100	> 100	> 100	> 100	–	–
Clc1ccc(/C=C/c2csnn2)cc1	> 100	> 100	> 100	> 100	> 100	–	–	–
CC(C)OC(=O)c1cc(NC(=S)OC(C)C)ccc1Cl	–	–	–	–	–	–	50 µM	–
Cc1cccc(NC(=O)CSc2nnc(-c3ccc(N=Cc4ccc(Cl)cc4)cc3)o2)c1	> 100	> 100	> 100	> 100	> 100	–	–	–
Nc1cccc(C(=O)/C=C/c2ccccc2O)c1	> 100	> 100	> 100	> 100	> 100	–	–	–
CC1(C)O[C@@H](CCl)C[C@@H](C#N)O1	> 100	> 100	> 100	–	> 100	–	–	–
NC(=O)C1C(=O)Oc2cccnc21 (stereo unspecified)	> 100	> 100	–	> 100	> 100	–	–	–
Cc1cn([C@H]2CN(O)C[C@@H](CO)O2)c(=O)[nH]c1=O	–	–	–	–	–	–	> 100 µM	–
CN(C)CN(C)c1nc(N(C)C)nc(N(C)C)n1	> 100	> 100	> 100	> 100	> 100	–	–	–
O=C(Cn1ccnc1[N+](=O)[O-])NCc1ccc(F)cc1	> 100	> 100	–	> 100	> 100	> 100	–	–
CCOc1ccccc1NC(=O)C1=C(C)NC(C)=C(C(=O)Nc2ccccc2OCC)C1c1ccc2c(c1)OCO2	> 100	–	95.6	49.6	> 100	–	–	–
N#CC(C#N)=C/C=C/c1ccccc1[N+](=O)[O-]	–	–	–	–	–	–	6.29 µM	–
Cc1cc2nc3c(C(OC4OC(CO)C(O)C(O)C4O)C(O)CO)nn(-c4ccc(F)cc4)c3nc2cc1C (stereo unspecified)	> 100	–	> 100	> 100	> 100	> 100	–	–
CCCCCCCC(=O)OC[n+]1cccc(-c2c(COC(=O)NC(C)C)c(COC(=O)NC(C)C)c3n2CCC3)c1	–	–	–	–	–	–	> 100 µM	–
CN(C)CCC(/C=C/c1ccccc1)=N\Nc1c(F)c(F)c(F)c(F)c1F	–	> 100	> 100	–	> 100	–	–	–
CN(C)CC(=O)N1CCc2c([nH]c3ccccc23)C1c1cccnc1 (stereo unspecified)	> 100	> 100	> 100	> 100	> 100	> 100	–	–
O=C(N[C@H]1CC2(C=C(I)C(=O)C(I)=C2)OC1=O)OCc1ccccc1	34.7	–	33.5	26.8	–	30.8	–	–
COc1ccc(S(=O)(=O)NNS(C)(=O)=O)cc1OC	> 100	–	–	> 100	> 100	–	–	–
Nc1nc2c(ncn2C2OC(CO)C(O)C2O)c(=O)[nH]1 (stereo unspecified)	214	300	300	–	206	–	–	TGI [8]: 80.3 µM; TGI [9]: 44.5 µM; TGI [10]: 259 µM
CC(=O)OCCc1cc2ccccc2oc1=O	–	–	–	–	–	–	> 100 µM	–
